Experimental data: PubChem BioAssay (NCI)
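The compound was tested at five concentrations on cells cultured in 96-well plates, with a 48-hour exposure period. At the TGI there is no net growth.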

How the values were obtained:
Test in all cases: NCI tumour cell line growth inhibition, 48 h
U251 CNS = tested on: U251 CNS
SNB-75 CNS = tested on: SNB-75 CNS
UO-31 renal = tested on: UO-31 renal
HOP-18 NSCLC = tested on: HOP-18 NSCLC
KM12 colon = tested on: KM12 colon
HOP-62 NSCLC = tested on: HOP-62 NSCLC
SK-OV-3 ovarian = tested on: SK-OV-3 ovarian
TK-10 renal = tested on: TK-10 renal
NCI-H226 lung = tested on: NCI-H226 lung
HCT-15 colon = tested on: HCT-15 colon
SK-MEL-2 melanoma = tested on: SK-MEL-2 melanoma
MOLT-4 leukemia = tested on: MOLT-4 leukemia
DLD-1 colon = tested on: DLD-1 colon
SN12C renal = tested on: SN12C renal
SW-620 colon = tested on: SW-620 colon
OVCAR-5 ovarian = tested on: OVCAR-5 ovarian
UACC-257 melanoma = tested on: UACC-257 melanoma
SR leukemia = tested on: SR leukemia
M14 melanoma = tested on: M14 melanoma
CAKI-1 renal = tested on: CAKI-1 renal
SNB-19 CNS = tested on: SNB-19 CNS
HT29 colon = tested on: HT29 colon
HOP-92 NSCLC = tested on: HOP-92 NSCLC
UACC-62 melanoma = tested on: UACC-62 melanoma
RXF-631 renal = tested on: RXF-631 renal
M19-MEL melanoma = tested on: M19-MEL melanoma
DMS 114 small cell lung = tested on: DMS 114 small cell lung
A549 NSCLC = tested on: A549 NSCLC
ACHN renal = tested on: ACHN renal
SK-MEL-5 melanoma = tested on: SK-MEL-5 melanoma
MALME-3M melanoma = tested on: MALME-3M melanoma
RPMI-8226 leukemia = tested on: RPMI-8226 leukemia
HCT-116 colon = tested on: HCT-116 colon
SNB-78 CNS = tested on: SNB-78 CNS
OVCAR-3 ovarian = tested on: OVCAR-3 ovarian
786-0 renal = tested on: 786-0 renal
LOX IMVI melanoma = tested on: LOX IMVI melanoma
K-562 leukemia = tested on: K-562 leukemia
LXFL 529 NSCLC = tested on: LXFL 529 NSCLC
SF-268 CNS = tested on: SF-268 CNS
CCRF-CEM leukemia = tested on: CCRF-CEM leukemia
OVCAR-8 ovarian = tested on: OVCAR-8 ovarian
COLO 205 colon = tested on: COLO 205 colon
HL-60(TB) leukemia = tested on: HL-60(TB) leukemia
SK-MEL-28 melanoma = tested on: SK-MEL-28 melanoma
IGROV1 ovarian = tested on: IGROV1 ovarian
KM20L2 colon = tested on: KM20L2 colon
SF-539 CNS = tested on: SF-539 CNS
OVCAR-4 ovarian = tested on: OVCAR-4 ovarian
SF-295 CNS = tested on: SF-295 CNS
NCI-H522 lung = tested on: NCI-H522 lung
NCI-H460 lung = tested on: NCI-H460 lung
NCI-H23 lung = tested on: NCI-H23 lung
EKVX NSCLC = tested on: EKVX NSCLC
RXF 393 renal = tested on: RXF 393 renal
DMS 273 small cell lung = tested on: DMS 273 small cell lung
A498 renal = tested on: A498 renal
HCC-2998 colon = tested on: HCC-2998 colon

COc1ccc(N2C(=O)/C(=C/c3ccc(N(CCC#N)CCC#N)cc3C)N=C2/C=C\c2ccccc2)cc1
TGI (U251 CNS): > 100 µM
TGI (SNB-75 CNS): > 100 µM
TGI (UO-31 renal): 75 µM
TGI (HOP-18 NSCLC): > 100 µM
TGI (KM12 colon): > 100 µM
TGI (HOP-62 NSCLC): 69.6 µM
TGI (SK-OV-3 ovarian): > 100 µM
TGI (TK-10 renal): > 100 µM
TGI (NCI-H226 lung): > 100 µM
TGI (HCT-15 colon): > 100 µM
TGI (SK-MEL-2 melanoma): > 100 µM
TGI (MOLT-4 leukemia): > 100 µM
TGI (DLD-1 colon): > 100 µM
TGI (SN12C renal): > 100 µM
TGI (SW-620 colon): > 100 µM
TGI (OVCAR-5 ovarian): > 100 µM
TGI (UACC-257 melanoma): > 100 µM
TGI (SR leukemia): > 100 µM
TGI (M14 melanoma): > 100 µM
TGI (CAKI-1 renal): > 100 µM
TGI (SNB-19 CNS): > 100 µM
TGI (HT29 colon): > 100 µM
TGI (HOP-92 NSCLC): > 100 µM
TGI (UACC-62 melanoma): 60.7 µM
TGI (RXF-631 renal): > 100 µM
TGI (M19-MEL melanoma): > 100 µM
TGI (DMS 114 small cell lung): > 100 µM
TGI (A549 NSCLC): > 100 µM
TGI (ACHN renal): > 100 µM
TGI (SK-MEL-5 melanoma): > 100 µM
TGI (MALME-3M melanoma): > 100 µM
TGI (RPMI-8226 leukemia): > 100 µM
TGI (HCT-116 colon): > 100 µM
TGI (SNB-78 CNS): > 100 µM
TGI (OVCAR-3 ovarian): > 100 µM
TGI (786-0 renal): > 100 µM
TGI (LOX IMVI melanoma): > 100 µM
TGI (K-562 leukemia): > 100 µM
TGI (LXFL 529 NSCLC): > 100 µM
TGI (SF-268 CNS): > 100 µM
TGI (CCRF-CEM leukemia): > 100 µM
TGI (OVCAR-8 ovarian): > 100 µM
TGI (COLO 205 colon): 92 µM
TGI (HL-60(TB) leukemia): > 100 µM
TGI (SK-MEL-28 melanoma): > 100 µM
TGI (IGROV1 ovarian): > 100 µM
TGI (KM20L2 colon): 40 µM
TGI (SF-539 CNS): 56.9 µM
TGI (OVCAR-4 ovarian): > 100 µM
TGI (SF-295 CNS): > 100 µM
TGI (NCI-H522 lung): > 100 µM
TGI (NCI-H460 lung): > 100 µM
TGI (NCI-H23 lung): > 100 µM

Cc1nc(N)nc(N)c1CCCCc1ccccc1
TGI (U251 CNS): 51.4 µM
TGI (SNB-75 CNS): > 100 µM
TGI (EKVX NSCLC): > 100 µM
TGI (UO-31 renal): > 100 µM
TGI (HOP-18 NSCLC): > 100 µM
TGI (KM12 colon): > 100 µM
TGI (HOP-62 NSCLC): 56.4 µM
TGI (SK-OV-3 ovarian): > 100 µM
TGI (TK-10 renal): 88.7 µM
TGI (HCT-15 colon): 63.3 µM
TGI (SK-MEL-2 melanoma): 40.9 µM
TGI (MOLT-4 leukemia): 63.5 µM
TGI (DLD-1 colon): > 100 µM
TGI (SN12C renal): > 100 µM
TGI (SW-620 colon): > 100 µM
TGI (OVCAR-5 ovarian): > 100 µM
TGI (UACC-257 melanoma): 28.6 µM
TGI (RXF 393 renal): 49.8 µM
TGI (SR leukemia): 38.4 µM
TGI (M14 melanoma): 19.7 µM
TGI (CAKI-1 renal): > 100 µM
TGI (SNB-19 CNS): > 100 µM
TGI (HT29 colon): 16.9 µM
TGI (HOP-92 NSCLC): 54.6 µM
TGI (UACC-62 melanoma): 76.8 µM
TGI (RXF-631 renal): 39.1 µM
TGI (M19-MEL melanoma): 30.6 µM
TGI (DMS 114 small cell lung): 24.1 µM
TGI (A549 NSCLC): > 100 µM
TGI (ACHN renal): > 100 µM
TGI (DMS 273 small cell lung): 20.5 µM
TGI (A498 renal): > 100 µM
TGI (SK-MEL-5 melanoma): 17.1 µM
TGI (MALME-3M melanoma): 26.5 µM
TGI (RPMI-8226 leukemia): 45.8 µM
TGI (HCT-116 colon): > 100 µM
TGI (SNB-78 CNS): > 100 µM
TGI (OVCAR-3 ovarian): 99.4 µM
TGI (786-0 renal): 19 µM
TGI (LOX IMVI melanoma): 23.9 µM
TGI (K-562 leukemia): 18.1 µM
TGI (LXFL 529 NSCLC): 73.8 µM
TGI (SF-268 CNS): 45.7 µM
TGI (CCRF-CEM leukemia): 24.8 µM
TGI (OVCAR-8 ovarian): > 100 µM
TGI (COLO 205 colon): 21 µM
TGI (HL-60(TB) leukemia): 20 µM
TGI (IGROV1 ovarian): > 100 µM
TGI (KM20L2 colon): 63.3 µM
TGI (SF-539 CNS): 36 µM
TGI (OVCAR-4 ovarian): > 100 µM
TGI (SF-295 CNS): > 100 µM
TGI (NCI-H522 lung): 31.6 µM
TGI (NCI-H460 lung): 81.4 µM
TGI (NCI-H23 lung): 20.6 µM
TGI (HCC-2998 colon): 22.7 µM
